Laboratory results published in patent US6245758A, “Methods of use for peroxynitrite decomposition catalysts, pharmaceutical compositions therefor” (priority 1996, dated 2001).

How the values were obtained:
[1] = test system: CuZnSOD; assay: Protection of CuZnSOD from inactivation by peroxynitrite using peroxynitrite decomposition catalysts; assay type: biochemical, bovine; conditions: Fe(III)TMPyP 0.5 and 1.0 uM, Fe(III)TMPS 1.0 and 5.0 uM; peroxynitrite 0-100 uM
Method: Assay solutions were prepared as described above except for the addition of various of peroxynitrite decomposition catalyst. The final solution volume was maintained at 10 mL. Thus, to the assay solutions Fe(III)TMPyP (0.5 and 1.0 uM final concentration) and Fe(III)TMPS (1.0 and 5.0 uM final concentration) was added. The solution were then treated with various amounts of peroxynitrite such that the final concentrations of 0,25, 50, 75 and 100 uM were achieved. Following treatment with peroxynitrite EDTA was added to a final concentration of 250 uM. The solutions were then assayed for SOD activity.

[2] = test system: carrageenan-induced paw edema; assay: Carrageenan-induced paw edema; assay type: in vivo, rat
Text: Carrageenan-induced paw edema. The effects of peroxynitrite catalysts in vivo were initially tested on the carrageenan-induced paw edema. The choice of using this in vivo model of inflammation was based on the knowledge that 1) the inflammatory response is blocked by NOS inhibitors and 2) by superoxide dismutase (SOD). This indicates the participation of both NO and of O2-. Male Sprague Dawley rats were purchased from Harlan Sprague-Dawley (Indianapolis, Ind.). Male Sprague Dawley rats (175-200 g) received a subplantar injection in the right hind paw of carrageenan (0.1 ml of a 1% suspension in 0.85% saline). Paw volume was measured by a plethysmometer immediately before the injection of carrageenan and then at hourly intervals from 1 to 6 h. Edema was expressed as the increase in paw volume (in ml) measured after carrageenan injection compared to the pre-injection value for individual animals.

[3] = test system: RAW 264.7 cells; assay: Cell protection assay, Alamar Blue viability after peroxynitrite challenge; assay type: cell-based, murine; conditions: for protection of cells from PN-mediated injury: PN 500 micromolar, RAW cells, FIG. 9 (H2 TMPyP and ZnTMPyP: data not shown)
Method: FIG. 8: Comparison of Ni and Fe Catalyst Protection of RAW Cells from PN(peroxynitrite)-mediated Injury. RAW 264.7 cells were plated at approximately 2×10^5 per well of a 96-well plate. […] Each condition represents the mean of 4 wells ±sem.
FIG. 9: Protection from PN-mediated RAW Cell Injury by Fe Catalysts. Cells were treated with 500 micromolar PN in the presence or the absence of the following catalysts: FeTMPyP, FeTMPS, FeTPPS. Cell viability was monitored as described in the text and figure legends 1, 2 and 3. Values represent the mean of 4 determinations ±sem.
Protocol for Cell Protection Assays using Peroxynitrite Decomposition Catalysts: A cell viability assay was established to rapidly assess the efficacy of peroxynitrite(PN) catalysts in protecting cells from PN25 mediated injury and death. The peroxynitrite challenge consisted of a pulse of synthetic PN added exogenously to cells. In order to better assess the efficacy of PN catalysts in protecting cells from PN-mediated damage, a quantity of peroxynitrite(in 50 mM NaOH) determined to cause maximal injury(100%) was added as an exogenous pulse to each well of cells in the presence or absence of catalyst. The NaOH vehicle was not toxic by itself.
Cells(RAW 264.7 cells or P815 mastocytoma cells; American Type Culture Collection, Rockville, Md.) were plated to confluence on 96-well tissue culture plates. Each well is washed twice with Dulbecco's phosphate buffered saline(DPBS; GIBCO BRL, Grand Island, N.Y.) to remove protein and other serum components which might react with the exogenous peroxynitrite. To each well is then added 200 μl of DPBS. PN is next placed into separate wells at increasing concentrations and cell viability monitored. The dose at which maximal cell death is attained is then utilized for the catalyst protection assessment.
Phosphate-buffered saline (200 uL) containing increasing concentrations of catalyst is next placed into individual wells of cells. The maximal dose of PN is subsequently administered to all wells of cells. After 15 minutes, the medium is removed from each well and the cells are either allowed to recover overnight in Earles minimum essential medium without phenol red and supplemented with 10% fetal bovine serum or alternatively the plate of cells is assayed that day for mitochondrial integrity using the Alamar Blue viability assay(Alamar Biosciences, Inc.; Sacramento, Calif.). In either case, cells are incubated at 37° C. in 5% CO2.
Cell injury is measured as follows. Briefly, 10% Alamar Blue(v/v) in Earles MEM with 10% FBS is added to each well of cells for 1-2h. Cell metabolism of the dye generates a fluorescent product which is directly related to the number of viable cells. Moreover, the production of the fluorescent metabolite is linear for over 2 h. The amount of fluorescent product in 100 μl of conditioned medium from each well of cells is then measured with an IDEXX fluorescent plate reader (gain setting of 1%) at an emission wavelength of 575 nm after exciting at 545 nm. Viability is either given as absolute fluorescent units or as a percent of the value obtained for untreated cells(100%).

[4] = 3 mg/kg i.v., 1 h post carrageenan
[5] = 3 mg/kg i.v., 2 h post carrageenan
[6] = 3 mg/kg i.v., 3 h post carrageenan
[7] = 3 mg/kg i.v., 4 h post carrageenan
[8] = 3 mg/kg i.v., 5 h post carrageenan
[9] = 3 mg/kg i.v., 6 h post carrageenan
[10] = 10 mg/kg i.v., 1 h post carrageenan
[11] = 10 mg/kg i.v., 2 h post carrageenan
[12] = 10 mg/kg i.v., 3 h post carrageenan
[13] = 10 mg/kg i.v., 4 h post carrageenan
[14] = 10 mg/kg i.v., 5 h post carrageenan
[15] = 10 mg/kg i.v., 6 h post carrageenan
[16] = 30 mg/kg i.v., 1 h post carrageenan
[17] = 30 mg/kg i.v., 2 h post carrageenan
[18] = 30 mg/kg i.v., 3 h post carrageenan
[19] = 30 mg/kg i.v., 4 h post carrageenan
[20] = 30 mg/kg i.v., 5 h post carrageenan
[21] = 30 mg/kg i.v., 6 h post carrageenan

SMILES | protection of CuZnSOD against inactivation by peroxynitrite [1] | % Inhibition of Paw Edema [2, 4] | % Inhibition of Paw Edema [2, 5] | % Inhibition of Paw Edema [2, 6] | % Inhibition of Paw Edema [2, 7] | % Inhibition of Paw Edema [2, 8] | % Inhibition of Paw Edema [2, 9] | % Inhibition of Paw Edema [2, 10] | % Inhibition of Paw Edema [2, 11] | % Inhibition of Paw Edema [2, 12] | % Inhibition of Paw Edema [2, 13] | % Inhibition of Paw Edema [2, 14] | % Inhibition of Paw Edema [2, 15] | % Inhibition of Paw Edema [2, 16] | % Inhibition of Paw Edema [2, 17] | % Inhibition of Paw Edema [2, 18] | % Inhibition of Paw Edema [2, 19] | % Inhibition of Paw Edema [2, 20] | % Inhibition of Paw Edema [2, 21] | protection of cells from PN-mediated injury [3] | also measured
CC(=O)[O-].Cc1c(-c2c3nc(c(-c4c(C)c(S(=O)(=O)[O-])c(C)c(S(=O)(=O)[O-])c4C)c4ccc([n-]4)c(-c4c(C)c(S(=O)(=O)[O-])c(C)c(S(=O)(=O)[O-])c4C)c4nc(c(-c5c(C)c(S(=O)(=O)[O-])c(C)c(S(=O)(=O)[O-])c5C)c5ccc2[n-]5)C=C4)C=C3)c(C)c(S(=O)(=O)[O-])c(C)c1S(=O)(=O)[O-].[Fe+3].[Na+].[Na+].[Na+].[Na+].[Na+].[Na+].[Na+].[Na+] [Fe(III)TMPS, Acetato-5,10,15,20-tetrakis(3,5-disulfonatomesityl)porphyrin Iron (III) octasodium salt] | concentration dependant protection of CuZnSOD against inactivation by peroxynitrite | 0% | 42% | 47% | 47% | 33% | 33% | 0% | 61% | 60% | 53% | 53% | 47% | 0% | 85% | 80% | 80% | 80% | 81% | significant protection of cells | 
CC(=O)[O-].C[n+]1ccc(-c2c3nc(c(-c4cc[n+](C)cc4)c4ccc([n-]4)c(-c4cc[n+](C)cc4)c4nc(c(-c5cc[n+](C)cc5)c5ccc2[n-]5)C=C4)C=C3)cc1.Cc1ccc(S(=O)(=O)[O-])cc1.Cc1ccc(S(=O)(=O)[O-])cc1.Cc1ccc(S(=O)(=O)[O-])cc1.Cc1ccc(S(=O)(=O)[O-])cc1.[Fe+3] [Fe(III)TMPyP, Acetato (5,10,15,20-tetrakis(N-methyl-4-pyridyl)porphinato) iron (III) tetra-tosylate] | concentration dependant protection of CuZnSOD against inactivation by peroxynitrite | 0% | 9% | 10% | 17% | 6% | 0% | 6% | 13% | 11% | 28% | 21% | 2% | 0% | 44% | 43% | 50% | 32% | 32% | significant protection of cells | protection of RAW 264.7 cells from PN-mediated injury ([3]; PN 360 micromolar, Alamar Blue, FIG. 8): total protection from PN-mediated injury
